From US9416103B2, “Use of the aminoalkylindole JWH-073-M4 and related compounds as neutral CB1 receptor antagonists for the treatment of alcoholism, drug abuse, obesity, and obesity-related diseases” (The Board of Trustees of the University of Arkansas, priority 2012, dated 2016)
Where “and” joins values, the source holds several entries; their conditions need not be identical. Equal entries are not always repeated. Where two headings read alike, the source gives them in different places. Marks after values point to notes of the source that are not given here.

Columns and labels:
hCB2Rs = hCB2Rs (Homo sapiens (Human), UniProt P34972); experiment: Competition receptor binding with [3H]CP-55,940 in CHO-hCB2 cell homogenates
Description: (§1) Competition receptor binding was performed as previously described. […] Reactions were terminated by rapid vacuum filtration through Whatman GF/B glass fiber filters, followed by five washes with ice-cold buffer (50 mM Tris, 0.05% BSA). Filters were immediately placed into 7 mL scintillation vials to which 4 mL of ScintiVerse™ BD Cocktail scintillation fluid (Fisher Scientific, Fair Lawn, N.J.) was added. Bound radioactivity was determined after overnight incubation at room temperature and shaking, by liquid scintillation spectrophotometry with an efficiency of 44% (Tri Carb 2100 TR Liquid Scintillation Analyzer, Packard Instrument Company, Meriden, Conn.). Specific binding is expressed as total binding minus non-specific binding, and is graphed for each data point as a percentage of specific binding occurring in the absence of any competitor.
(§2) The prepared analogues were subjected to in vitro pharmacological testing, which included receptor binding and functional assays at both cannabinoid receptors. Initial receptor binding screens at both CB1Rs and CB2Rs were conducted for the analogues prepared.

CB1Rs [1] = target: T1, CB1Rs (Mus musculus (Mouse), UniProt P47746); experiment: [35S]GTPγS binding assay (G-protein activation) in mouse brain homogenates; type: biochemical
Description: (§3) Mouse brain homogenates for in vitro assays were prepared as previously described. Briefly, whole brains were harvested from B6SJL mice, snap-frozen in liquid nitrogen and stored at −80° C. On the day membrane homogenates were to be prepared, brains were thawed on ice, then pooled in a 40 mL Dounce glass homogenizer and suspended in 5 volumes of ice cold homogenization buffer (50 mM HEPES, pH 7.4, 3 mM MgCl2, and 1 mM EGTA). Brains were then subjected to 10 complete strokes with an A pestle, followed by centrifugation at 40,000×g for 10 minutes at +4° C. Resulting supernatants were discarded, and the pellet was resuspended, homogenized and centrifuged similarly twice more, with supernatants being discarded. For the final resuspension and homogenization with a B pestle, ice-cold 50 mM HEPES was used in place of homogenization buffer, and homogenates were aliquoted and stored at −80° C. Protein concentrations of homogenates were determined using the BCA™ Protein Assay (Thermo Scientific, Rockford, Ill.).
[^35S]GTPγS binding was performed as previously described. Briefly, 25 μg of mouse brain homogenates were incubated for 30 minutes at 30° C. with 0.1 nM [^35S]GTPγS, 10 μM GDP, and either cannabinoid+/−antagonist, 10 μM unlabeled GTPγS (non-specific binding) or vehicle (total binding), in triplicate, in a volume of 1 mL of buffer containing 20 mM HEPES, 10 mM MgCl2, 100 mM NaCl, 20 units/L adenosine deaminase, 0.05% BSA and the appropriate DMSO (0.1%) and/or ethanol (<0.2%) vehicle. Assay buffer containing 100 mM KCl, instead of 100 mM NaCl, was used to increase basal G-protein activity in experiments examining inverse agonism. Reactions were terminated by quick vacuum filtration through Whatman GF/B glass fiber filters, followed by five washes with ice-cold buffer (20 mM HEPES, 0.05% BSA). Filters were immediately placed into 7 mL scintillation vials to which 4 mL of ScintiVerse™ BD Cocktail scintillation fluid was added. Bound radioactivity was determined after overnight incubation at room temperature and shaking by liquid scintillation spectrophotometry with an efficiency of 93% (Tri Carb 2100 TR Liquid Scintillation Analyzer, Packard Instrument Company, Meriden, Conn.). Specific binding is expressed as picomoles of [^35S]GTPγS bound per mg of protein.
(§4) Curve fitting and statistical analyses for in vitro experiments were performed using GraphPad Prism™ version 5.0b (GraphPad Software Inc., San Diego, Calif.). The Cheng-Prusoff equation [45] was used to convert the experimental IC50 values obtained from competition receptor binding experiments to Ki values, a quantitative measure of receptor affinity. Non-linear regression for one-site competition was used to determine the IC50 for competition receptor binding. Curve fitting of concentration-effect curves via non-linear regression was also employed to determine the EC50 (a measure of potency) and Emax (a measure of efficacy) for [^35S]GTPγS concentration-effects experiments. […] Data are expressed as mean±SEM. The Student's t-test was used to determine statistical significance (P<0.05) between two groups, while a one-way ANOVA, followed by Tukey's Multiple Comparison post-hoc test, was used to determine statistical significance (P<0.05) between three or more groups.

CB1Rs [2] = target: T1, CB1Rs; experiment: Competition receptor binding with [3H]CP-55,940 in mouse brain homogenates
Description: as §3, §1, §4, §2

[3] = CHO-hCB2 homogenates (100 μg), read-out: affinity (Ki) at hCB2Rs
[4] = mouse brain homogenates, 0.2 nM [3H]CP-55,940, read-out: [3H]CP binding Ki

| Compound | Ki (hCB2Rs; CHO-hCB2 homogenates (100 μg), listed as JWH-073-M4, read-out: affinity (Ki) at hCB2Rs) [nM] | Ki (hCB2Rs; [3]) [nM] | Ki (hCB2Rs; Table 3, read-out: hCB2R Ki) [nM] | effect on basal [35S]GTPγS binding levels when tested alone (CB1Rs [1]; 0.1 nM to 10 μM) | Kb (CB1Rs [1]; EC90 concentration of CP-55,940 (100 nM), from IC50 by modified Cheng-Prusoff, read-out: Kb, antagonism of CP-55,940-induced [35S]GTPγS binding) [nM] | antagonism of CB1R agonists and inverse agonists on [35S]GTPγS binding (CB1Rs [1]; M4 10 μM co-incubated with CP-55,940, JWH-018, JWH-073, Rimonabant or AM251) | Kb (CB1Rs [1]; M4 1, 3, 10 μM shifting JWH-018 curve, read-out: Kb, Schild analysis against JWH-018) | Schild plot slope (CB1Rs [1]; against JWH-018) | Ki (CB1Rs [2]; Table 3, read-out: mCB1R Ki) [nM] | Ki (CB1Rs [2]; mouse brain homogenates, 0.2 nM [3H]CP-55,940, listed as JWH-073-M4, read-out: [3H]CP binding Ki) [nM] | Ki (CB1Rs [2]; [4]) [nM] | [35S]GTPγS Binding, 1 μM (CB1Rs [1]; 1 μM) [pmol/mg] | [35S]GTPγS Binding, +O-2050 (1 μM) (CB1Rs [1]; 1 μM cannabinoid (100 nM for CP-55,940) co-incubated with CB1R antagonist O-2050 1 μM) [pmol/mg] | [35S]GTPγS Binding Emax (CB1Rs [1]; concentration-effect, mouse brain homogenates) | EC50 (CB1Rs [1]; concentration-effect, mouse brain homogenates, read-out: [35S]GTPγS Binding EC50) [nM] | [35S]GTPγS Binding, 10 μM (CB1Rs [1]; receptor-saturating concentration 10 μM) |
| --- | --- | --- | --- | --- | --- | --- | --- | --- | --- | --- | --- | --- | --- | --- | --- | --- |
| CCCCn1cc(C(=O)c2cccc3ccccc23)c2cccc(O)c21 [Compound M4] | ~250 | 251 ± 91.1 | 78.3 ± 36.2 | neither significantly increased (characteristic of agonists), nor decreased | 40.3 | significantly antagonized the action of agonists | ~40 nM and 48.1 nM and 48 nM | 0.97 | 24.2 ± 17.2 | ~120 | 122 | – | – | – | – | – |
| CCCCn1cc(C(=O)c2cccc3ccccc23)c2ccccc21 [JWH-073, (1-butyl-1H-indole-3-yl)-1-naphthalenyl-methanone] | – | 9.84 ± 0.92 | 9.8 ± 0.9 | – | – | – | – | – | 12.9 ± 3.4 | – | 12.9 ± 3.4 | 0.27 ± 0.04 | 0.07 ± 0.02 | 0.27 ± 0.01^a pmole/mg | 276 ± 65.3 | 0.28±0.03 pmole/mg and 0.28 ± 0.03^c pmole/mg |
